For series [1], the system named is panel of eight Candida and Cryptococcus strains. In words: Antifungal MIC, summary over the extended panel. Particulars: whole yeast panel, tested alone. The format is cell-based. The source says: Yeast strains: Candida albicans (ATCC 90028, NCCLS 11), Cryptococcus neoformans (ATCC 208821, H99 type strain), Candida tropicalis (ATCC 750, type strain), Candida glabrata (ATCC 90030, NCCLS 84) and Cryptococcus deuterogattii (ATCC 32609, type strain) were obtained from the American Type Culture Collection (ATCC). Cryptococcus deuterogattii (CBS 7750), Candida auris (CBS 10913) and Candida auris (CBS 12373) were obtained from the CBS‐KNAW culture collection. The strains were maintained on glycerol/YPD (yeast extract‐peptone dextrose) broth (20:80 v/v) at −80 °C.
Antifungal minimum inhibitory concentration (MIC) assay: The cobalt complexes and antifungal control compounds were serially diluted in 50 μL of Yeast Nitrogen Broth (YNB; BD, Cat No. 233520 supplemented with 2 % glucose and 10 mM ammonium sulfate) two‐fold across the wells of non‐binding surface (NBS) 96‐well plates (Corning; Cat. No. 3641). […]
Yeast strains were cultured from glycerol onto YPD (Becton Dickinson 242720) agar at 30 °C for 72 h. For each strain, a minimum of five single colonies were taken from the agar plate and dissolved in sterile water and adjusted to form a yeast suspension of 1×10^6 to 5×10^6 CFU mL^−1 (as determined by OD530). […]
Growth inhibition of all strains was determined visually where the MIC was recorded as the lowest compound concentration with no visible growth. […]

The nature of series [2]: Stability in water by 1H NMR (axial ligand exchange). The format is physicochemical. Particulars: room temperature. An excerpt:
Because our previous results had shown that complexes bearing weak axial donors are more biologically active, we sought to synthesise a very labile Co^III‐bis(thiosemicarbazone) complex by using a weakly donating pyridine axial monodentate ligand. We were unable to synthesise a complex using unsubstituted pyridine, probably because it is a such a weak donor ligand that it will not remain bound to the Co^III center even briefly, preventing isolation of the complex. However, we were able to isolate a complex (3) bearing the more electron‐donating 4‐(dimethylamino)pyridine (DMAP) ligand in the axial positions. As expected, this complex is extremely labile. […] In our hands, the bis‐aqua complex could not be isolated.

For another series, the system named is C. albicans. In words: CO-ADD screening, broth microdilution MIC, yeast reference strain. Type of series: cell-based. An excerpt:
(§1) As previously mentioned, complexes 1, 2 and 4 were studied in earlier biological assays. […] In our CO‐ADD screening, using broth microdilution (BMD) MIC assays (Table S2), complexes 1–3 were effective at killing drug‐susceptible yeast reference strains of C. albicans and C. neoformans while displaying no antibacterial activity.
In general terms: In broth dilution the organism is exposed to a series of concentrations in liquid medium.

Another series relates to C. neoformans. The series is described as above. The format is cell-based.
Description: as §1

`O=[N+]([O-])[O-].O=[N+]([O-])[O-].[Co+2]` [Co, Co(NO3)2, reference compound]: the “MIC, no detectable antifungal effect up to” value in series [1] is more than 100 µM.
As for `CC1=[N+]2N=C(N)[S][Co-3]23([n+]2ccc(N(C)C)cc2)([n+]2ccc(N(C)C)cc2)[S]C(N)=N[N+]3=C1C.O=[N+]([O-])[O-]` [Compound 3, [Co(ATS)(DMAP)2]NO3], in series [2] (1H NMR, on dissolution), the “Stability on dissolution in water” value was “immediately yields a mixture of species”. In addition, the “Stability in water overnight” value in series [2] (incubation overnight) is listed as “totally converted into the bis‐aqua complex”.
In the case of `O=[N+]([O-])[O-].[NH3+][Co-3]123([NH3+])[O]c4c(F)cccc4C=[N+]1c1ccccc1[N+]2=Cc1cccc(F)c1[O]3` [Compound 7, [Co(3F‐salophen)(NH3)2]NO3], in the series with C. albicans, the “Antifungal activity, C. albicans reference strain” value is “neither antibacterial nor antifungal activity”. In the series with C. neoformans, the “Antifungal activity, C. neoformans reference strain” value is reported as “neither antibacterial nor antifungal activity”.

Source of the values: publication PMC7855930, “Nontoxic Cobalt(III) Schiff Base Complexes with Broad‐Spectrum Antifungal Activity” (Chemistry (Weinheim an Der Bergstrasse, Germany), 2020).
